Results as given in PubChem BioAssay AID504313 (Emory University Molecular Libraries Screening Center, 2011).
pIC50: −log10 of the molar value. Active and inactive are the calls of the source. How the calls were made is not given here.

Biological target: X-box-binding protein 1 (Homo sapiens) (UniProt P17861)
Experiment: XBP1 reporter suppression in cells – counter-screen, dose response (AID 504313);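 further: CHO cells carrying an XBP1 reporter stimulated with tunicamycin; potency is for inhibition of the tunicamycin-induced reporter signal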
Details: XBP1 reporter cell assay, percent of control

CCCCn1c(NS(=O)(=O)c2ccc(C)cc2)c(S(=O)(=O)c2ccccc2)c2nc3ccccc3nc21
IC50: > 10 µM (inactive)

COc1ccc(Cn2c(C)c(C)c(C#N)c2NC(=O)Nc2ccc(Cl)cc2)cc1
IC50: > 10 µM (inactive)

Cc1cc(C(=O)CCl)c(C)n1-c1cccc(S(=O)(=O)N2CCOCC2)c1
IC50: > 10 µM (inactive)

CN1CCN(CC(=O)N2CCn3c4c(c5cc(C6CCCCC6)ccc53)CCCC42)CC1 (stereo not drawn)
IC50: > 10 µM (inactive)

FC(F)(F)c1cc(-c2cccs2)nc(-n2cc(Br)cn2)n1
IC50: > 10 µM (inactive)

CCc1ccc(OCC(=O)NC(NC(=S)Nc2ccccc2)C(Cl)(Cl)Cl)cc1 (stereo not drawn)
IC50: > 10 µM (inactive)

Nc1ccc2c(c1)C(=O)C(=O)c1ccccc1-2
IC50: inactive

CC(C)(C)c1cc(CN2CCCC(O)C2)c(O)c(C(C)(C)C)c1 (stereo not drawn)
IC50: inactive

C/C(=N\NC(=O)COc1ccc(C(C)(C)C)cc1)c1ccc(N2CCOCC2)cc1
IC50: inactive

C=C1C(=O)O[C@@H]2C[C@@H](C)[C@@H]3C=CC(=O)[C@@]3(C)[C@@H](O)[C@H]12
pIC50: 5.61

FC(F)(F)c1cccc(Sc2nc(-c3ccccc3)nnc2C(F)(F)F)c1
IC50: inactive

COC(=O)CS(=O)(=O)c1nnc([C@H](Cc2ccccc2)NC(=O)OC(C)(C)C)o1
IC50: inactive

O=C(NNc1ccccc1Br)C(O)(c1cccc(C(F)(F)F)c1)c1cccc(C(F)(F)F)c1
IC50: inactive

COc1ccccc1NC(=O)c1c(Nc2ccccc2C)sc(C(=O)Nc2cccc(Cl)c2)c1N
IC50: > 10 µM (inactive)

Cc1ccn2cc(-c3cc4ccccc4oc3=O)nc2c1
IC50: inactive

CCn1c(C)nc2cc(-c3nnc(-c4c(-c5ccccc5)noc4C)o3)ccc21
IC50: > 10 µM (inactive)

O=C(Cc1ccccc1)NC(=S)Nc1cccc(C(F)(F)F)c1
IC50: inactive

O=C(N/N=C/c1cccc(F)c1)c1c(O)c2ccccc2[nH]c1=O
IC50: inactive

CC1=C/C(=N\OS(=O)(=O)c2ccccc2)C(C)=CC1=O
pIC50: 5.57

C#CC(=O)N(c1cc(OC)ccc1OC)C(C(=O)NC1CCCC1)c1cccs1 (stereo not drawn)
IC50: inactive

CC(C)=C1C2CCC1C(C(=O)Nc1sc(C)c(-c3ccc(C(C)C)cc3)c1C(N)=O)C2C(=O)O (stereo not drawn)
IC50: inactive

Cc1cccnc1NC(=O)c1c(O)c2ccccc2n(C)c1=O
IC50: inactive

Cc1ccc(CNCc2cc3c(C(C)(C)C)nn(-c4ccccc4)c3[nH]c2=O)cc1
IC50: inactive

Cc1ccccc1NC(=O)/C=C/c1ccc([N+](=O)[O-])s1
IC50: inactive

O=C(CCl)Nc1cn(-c2ccccc2)nc1-c1ccccc1
IC50: inactive

Cc1cc(C)c(S(=O)(=O)c2ccccc2)c(OC(=O)c2cc(F)c(F)cc2Cl)n1
IC50: inactive

Fc1cccc(-c2nnn3c2nc(Cl)c2ccccc23)c1
IC50: inactive

CCC1CCCCN1S(=O)(=O)c1ccc(C(=O)Nc2nnc(-c3ccccc3Cl)o2)cc1 (stereo not drawn)
IC50: inactive

COC(=O)/C(=C1/Oc2cc(C)oc(=O)c2S1)C(F)(F)F
pIC50: 5.53

O=C(Nc1ccc([N+](=O)[O-])cc1)Nc1nc(-c2ccc(Cl)s2)cs1
pIC50: 5.60

CN1/C(=C\C=C\C2=[N+](C)c3ccc4ccccc4c3C2(C)C)C(C)(C)c2ccccc21
pIC50: > 6.80

Cc1nnc(NC(=O)c2sc3nc(-c4cccs4)cc(C(F)(F)F)c3c2N)s1
IC50: inactive

O=C(Cc1csc(Nc2nc(=S)[nH]c3ccccc23)n1)NCCCN1CCN(c2ccccc2F)CC1
IC50: > 10 µM (inactive)

C=C1C(=O)O[C@@H]2C[C@@H](C)[C@@H]3C4OC4C(=O)[C@@]3(C)[C@@H](O)[C@H]12 (stereo partly drawn)
pIC50: 5.30

Cc1nn(C(C)(C)C)c(C)c1/C=N/OC(=O)Nc1ccc(Cl)cc1
pIC50: > 6.80

CN1/C(=C/C(=O)c2nc(S(C)(=O)=O)ncc2Cl)C(C)(C)c2ccccc21
IC50: inactive

Cc1ccc(Nc2nc(N)c([N+](=O)[O-])c(N3CCC(C)CC3)n2)cc1C
IC50: inactive

CCN1/C(=C\C=C\C2=[N+](CC)c3ccccc3C2(C)C)C(C)(C)c2ccccc21
pIC50: > 6.80
